# Reference: US9018200B2, “Substituted piperidinyl compounds useful as GPR119 agonists” (Merck Sharp & Dohme Corp., priority 2011, dated 2015)
# Molecular target: T1, human GPR119 (Homo sapiens, UniProt Q8TDV5)
# T1 sequence (Q8TDV5 1-308 limits assumed): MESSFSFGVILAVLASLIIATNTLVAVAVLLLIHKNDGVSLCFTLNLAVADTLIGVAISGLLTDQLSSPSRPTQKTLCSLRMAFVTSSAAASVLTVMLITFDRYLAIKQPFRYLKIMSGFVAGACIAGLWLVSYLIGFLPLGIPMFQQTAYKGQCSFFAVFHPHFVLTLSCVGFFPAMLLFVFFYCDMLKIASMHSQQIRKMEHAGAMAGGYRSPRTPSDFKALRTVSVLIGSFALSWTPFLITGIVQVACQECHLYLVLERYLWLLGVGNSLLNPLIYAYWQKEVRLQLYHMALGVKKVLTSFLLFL
# Assay: Measurement of GPR119 signaling (cAMP assay) in HEK 293 cells stably transfected with human GPR119
# Assay type: cell-based
# Settings: not given
# From the text: Measurement of GPR119 Signaling (Cyclic AMP (cAMP) Assay)
# Human embryonic kidney (HEK) 293 cell lines stably transfected with human GPR119 were maintained in Dulbecco's Modified Eagle Medium (DMEM) containing fetal bovine serum (FBS), penicillin-streptomycin, HEPES buffer (4-(2-hydroxyethyl)-1-piperazineethane sulfonic acid), and hygromycin. For the cAMP assay, the transfected cells were harvested using a non-enzymatic cell dissociation solution (GIBCO 2672), pelleted and resuspended in stimulation buffer (DMEM, 25 mM HEPES, 0.1% bovine serum albumin (BSA), pH 7.4 in the presence of 100 μM phosphodiesterase inhibitors). The adenylate cyclase assay was constructed following the LANCE™ cAMP Kit (Perkin Elmer, AD0264) instructions.
# Briefly, cells with Alexa Fluor® 647-anti cAMP antibody were incubated with 10 point series diluted test article in stimulation buffer with a final concentration of 2.5% DMSO for 45 minutes. The reaction was stopped by incubating with the supplied detection buffer containing the europium chelate of the Eu-SA/Biotin-cAMP tracer for 3 hours. The assay was performed in duplicate in a 384 well plate for duplicate plates and fluorescence was measured at 665 nm. Basal activity was determined using a DMSO control and maximum response was defined as cAMP stimulation produced by an internal agonist control. Standard cAMP concentrations were assayed concurrently for conversion of fluorescence signal to cAMP level. The data was analyzed using 4-parameter curve fit in Microsoft Excel. […]
row,Compound,EC50 [nM]
1,"COC(=O)c1c(F)cc(OCC[C@@H]2C[C@@H]2C2CCN(CC(F)(F)F)CC2)cc1F [Example 1, Methyl 2,6-difluoro-4-(2-{(1S,2R)-2-[1-(2,2,2-trifluoroethyl)piperidin-4-yl]cyclopropyl}ethoxy)benzoate]",28.7
2,"O=C(NC1CC1)c1c(F)cc(OCC[C@@H]2C[C@@H]2C2CCN(CC(F)(F)F)CC2)cc1F [Example 3, N-Cyclopropyl-2,6-difluoro-4-(2-{(1S,2R)-2-[1-(2,2,2-trifluoroethyl)piperidin-4-yl]cyclopropyl}ethoxy)benzamide]",5.28
3,"CS(=O)(=O)c1ccc(OCC[C@@H]2C[C@@H]2C2CCN(CC(F)(F)F)CC2)cc1 [Example 4, 4-[(1R,2S)-2-{2-[4-(Methylsulfonyl)phenoxy]ethyl}cyclopropyl]-1-(2,2,2-trifluoroethyl)piperidine]",176

# Same assay, conditions: table of Examples 5-56
row,Compound,EC50 [nM]
1,CCC(F)(F)CN1CCC([C@H]2C[C@H]2CCOc2cc(F)c(C(=O)NC3CC3)c(F)c2)CC1 [Example 5],0.43
2,O=C(NC1CC1)c1ccc(OCC[C@@H]2C[C@@H]2C2CCN(CC(F)(F)C(F)(F)F)CC2)cc1F [Example 6],0.52
3,CCC(F)(F)CN1CCC([C@H]2C[C@H]2CCOc2cc(F)c(C(=O)NC3(C)CC3)c(F)c2)CC1 [Example 7],1.2
4,O=C(NCC1CCCO1)c1ccc(OCC[C@@H]2C[C@@H]2C2CCN(CC(F)(F)C(F)(F)F)CC2)cc1F (some centres unmarked) [Example 8],1.6
5,CC(C)(CO)NC(=O)c1ccc(OCC[C@@H]2C[C@@H]2C2CCN(CC(F)(F)C(F)(F)F)CC2)cc1F [Example 9],2.34
6,O=C(NCC1(O)CC1)c1ccc(OCC[C@@H]2C[C@@H]2C2CCN(CC(F)(F)C(F)(F)F)CC2)cc1F [Example 10],3.02
7,O=C(NC1CC1)c1ccc(OCC[C@@H]2C[C@@H]2C2CCN(CC(F)(F)C(F)F)CC2)cc1F [Example 11],3.16
8,O=C(NCc1cnoc1)c1ccc(OCC[C@@H]2C[C@@H]2C2CCN(CC(F)(F)C(F)(F)F)CC2)cc1F [Example 12],3.69
9,CC(C)(C)NC(=O)c1ccc(OCC[C@@H]2C[C@@H]2C2CCN(CC(F)(F)C(F)(F)F)CC2)cc1F [Example 13],3.83
10,CS(=O)(=O)c1ccc(OCC[C@@H]2C[C@@H]2C2CCN(CC(F)(F)C(F)(F)F)CC2)cc1F [Example 14],4.35
11,O=C(NC1CC1)c1c(F)cc(OCC[C@@H]2C[C@@H]2C2CCN(CC(F)(F)F)CC2)cc1F [Example 15],5.28
12,CCC(F)(F)CN1CCC([C@H]2C[C@H]2CCOc2ccc(C(=O)NC3CC3)c(F)c2)CC1 [Example 16],5.34
13,O=C(NCCO)c1ccc(OCC[C@@H]2C[C@@H]2C2CCN(CC(F)(F)C(F)(F)F)CC2)cc1F [Example 17],5.38
14,O=C(NC1CC1(F)F)c1c(F)cc(OCC[C@@H]2C[C@@H]2C2CCN(CC(F)(F)F)CC2)cc1F (some centres unmarked) [Example 18],5.87
15,CC(C)(C)NC(=O)c1c(F)cc(OCC[C@@H]2C[C@@H]2C2CCN(CC(F)(F)F)CC2)cc1F [Example 19],12.2
16,O=C(c1ccc(OCC[C@@H]2C[C@@H]2C2CCN(CC(F)(F)C(F)(F)F)CC2)cc1F)N1CCC(O)C1 (some centres unmarked) [Example 20],13.4
17,CS(=O)(=O)c1ccc(OCC[C@@H]2C[C@@H]2C2CCN(CC(F)(F)C(F)(F)F)CC2)nc1 [Example 21],14
18,O=C(NC1CC1)c1ccc(OCC[C@@H]2C[C@@H]2C2CCN(CC(F)(F)F)CC2)cc1F [Example 22],16.7
19,CC(C)(O)C1CCCN(C(=O)c2ccc(OCC[C@@H]3C[C@@H]3C3CCN(CC(F)(F)C(F)(F)F)CC3)cc2F)C1 (some centres unmarked) [Example 23],18.4
20,O=C(NC1CC(F)(F)C1)c1c(F)cc(OCC[C@@H]2C[C@@H]2C2CCN(CC(F)(F)F)CC2)cc1F [Example 24],20.3
21,CCC(F)(F)CN1CCC([C@H]2C[C@H]2CCOc2ccc(S(C)(=O)=O)c(F)c2)CC1 [Example 25],22.5
22,CS(=O)(=O)c1ccc(OCC[C@@H]2C[C@@H]2C2CCN(CC(F)(F)C(F)(F)F)CC2)cc1 [Example 26],23.6
23,CS(=O)(=O)c1ccc(OCC[C@@H]2C[C@@H]2C2CCN(CC(F)(F)F)CC2)nc1 [Example 27],27.8
24,CCC(F)(F)CN1CCC([C@H]2C[C@H]2CCOc2cc(F)c(S(C)(=O)=O)c(F)c2)CC1 [Example 28],35.3

row,Compound,EC50 [nM]
1,O=C(c1c(F)cc(OCC[C@@H]2C[C@@H]2C2CCN(CC(F)(F)F)CC2)cc1F)N1CC(F)(F)C1 [Example 31],45.8
2,COCCNC(=O)c1c(F)cc(OCC[C@@H]2C[C@@H]2C2CCN(CC(F)(F)F)CC2)cc1F [Example 33],68
3,O=C(NC1CCOCC1)c1c(F)cc(OCC[C@@H]2C[C@@H]2C2CCN(CC(F)(F)F)CC2)cc1F [Example 34],77.3
4,Cc1nc(C#N)cc(OCC[C@@H]2C[C@@H]2C2CCN(CC(F)(F)F)CC2)n1 [Example 35],126
5,CS(=O)(=O)c1ccc(OCC[C@@H]2C[C@@H]2C2CCN(CC(F)(F)F)CC2)cc1 [Example 36],176
6,Cc1cc(OCC[C@@H]2C[C@@H]2C2CCN(CC(F)(F)F)CC2)cc(C#N)n1 [Example 37],199
7,O=C(c1ccc(OCC[C@@H]2C[C@@H]2C2CCN(CC(F)(F)F)CC2)cc1F)N1CCC(O)C1 (some centres unmarked) [Example 38],257
8,O=C1Cc2cc(OCC[C@@H]3C[C@@H]3C3CCN(CC(F)(F)F)CC3)ccc2N1 [Example 39],270
9,CC(F)(F)CN1CCC([C@H]2C[C@H]2CCOc2ccc(S(C)(=O)=O)cn2)CC1 [Example 40],776
10,O=C(NC1CC1)c1ccc(OCC[C@@H]2C[C@@H]2C2CCN(CCC(F)(F)F)CC2)cc1F [Example 41],59.3
11,CC(C)(CN1CCC([C@H]2C[C@H]2CCOc2ccc(C(=O)NC3CC3)c(F)c2)CC1)C(F)(F)F [Example 42],2.34
12,O=C1Cc2cc(OCC[C@@H]3C[C@@H]3C3CCN(CC(F)(F)C(F)(F)F)CC3)cc(F)c2N1 [Example 43],7.13
13,CC(=O)c1ccc(OCC[C@@H]2C[C@@H]2C2CCN(CC(F)(F)C(F)(F)F)CC2)cc1F [Example 44],51.6
14,CCC(F)(F)CN1CCC([C@H]2C[C@H]2CCOc2cc(F)c(C(=O)C3CC3)c(F)c2)CC1 [Example 45],1.65
15,Cc1nnc(-c2ccc(OCC[C@@H]3C[C@@H]3C3CCN(CC(F)(F)C(F)(F)F)CC3)cc2F)o1 [Example 46],7.31
16,FC(F)(F)C(F)(F)CN1CCC([C@H]2C[C@H]2CCOc2ccc(-n3cnnn3)cc2)CC1 [Example 49],24.2
17,FC(F)(F)C(F)(F)CN1CCC([C@H]2C[C@H]2CCOc2ccc(-n3cncn3)cc2)CC1 [Example 50],26.9
18,COC(=O)c1c(F)cc(OCC[C@@H]2C[C@@H]2C2CCN(CC(F)(F)F)CC2)cc1F [Example 51],28.7
19,Cc1nc(-c2ccc(OCC[C@@H]3C[C@@H]3C3CCN(CC(F)(F)C(F)(F)F)CC3)cc2)no1 [Example 52],40.8
20,CC(C)(C)NC(=O)c1ccc(OCC[C@@H]2C[C@@H]2C2CCN(CC(F)(F)F)CC2)cc1F [Example 53],57.9
21,Cc1nnc(-c2ccc(OCC[C@@H]3C[C@@H]3C3CCN(CC(F)(F)F)CC3)cc2F)o1 [Example 54],59.5
22,CS(=O)(=O)c1c(F)cc(COC[C@@H]2C[C@@H]2C2CCN(CC(F)(F)F)CC2)cc1F [Example 55],568
23,C=CCCC(=O)c1ccc(OCC[C@@H]2C[C@@H]2C2CCN(CC(F)(F)C(F)(F)F)CC2)cc1F [Example 56],13.4
